In PubChem BioAssay (NCI) one finds TGI data, which are given here for 3 compounds.

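In this assay, cells in 96-well plates receive the compound at five concentrations for 48 hours. Endpoints are linearly interpolated between the surrounding concentrations. TGI: total growth inhibition.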

Among the test systems are A498 renal; A549 NSCLC; DLD-1 colon; DMS 114 small cell lung; DMS 273 small cell lung; HCT-116 colon; HOP-92 NSCLC; KM12 colon; KM20L2 colon; M19-MEL melanoma; NCI-H226 lung; OVCAR-4 ovarian; OVCAR-5 ovarian; SK-MEL-5 melanoma; SK-OV-3 ovarian; SNB-78 CNS; XF 498 CNS; MDA-N; PC-3 prostate; T-47D breast.
Common to all, as to test: DTP human tumour cell line panel, 48 h

The TGI is the concentration giving total growth inhibition. Lower therefore signals greater sensitivity of the cells.

In the case of `CCC1=CC2CN3CCc4c([nH]c5ccccc45)C(C(=O)OC)(C2)C13` (stereo not drawn), the TGI in the assay with A498 renal came out at 108 µM; in the assay on A549 NSCLC it was 82.5 µM; in the assay with DLD-1 colon it was 87.5 µM; with DMS 114 small cell lung it was 85.1 µM; with DMS 273 small cell lung it was 91 µM; in the assay with HCT-116 colon, 71 µM. In addition, the total growth inhibition concentration (TGI) with HOP-92 NSCLC is 33.9 µM; with KM12 colon, 41.8 µM; with KM20L2 colon it was 19.3 µM; in the assay on M19-MEL melanoma it was 85.8 µM; in the assay with NCI-H226 lung, 23.4 µM; in the assay on OVCAR-4 ovarian it was 75.3 µM. Besides, the total growth inhibition concentration (TGI) is 24.3 µM with OVCAR-5 ovarian; 79.4 µM with SK-MEL-5 melanoma; 134 µM in the assay on SK-OV-3 ovarian; 167 µM with SNB-78 CNS; 76.3 µM with XF 498 CNS.
As to `CCOC(=O)c1csc(NC(=O)CCN2CCCCC2)n1`, the TGI with A498 renal, in the assay on A549 NSCLC, in the assay with HOP-92 NSCLC, in the assay on MDA-N, in the assay on OVCAR-4 ovarian and in the assay with OVCAR-5 ovarian was > 100 µM in each case. For the same compound, the TGI in the assay with PC-3 prostate, in the assay on SK-MEL-5 melanoma, with SK-OV-3 ovarian and in the assay with T-47D breast was > 100 µM throughout.
For `CN1C2CC(=O)CC1[C@H](O)[C@@H]2O`, the total growth inhibition concentration (TGI) in the assay with HCT-116 colon, in the assay with KM12 colon, with MDA-N, with NCI-H226 lung, in the assay on PC-3 prostate and in the assay on T-47D breast was > 100 µM throughout.
